Reference: patent EP1206258B1, “COMPOSITIONS CONTAINING ESTERS FOR TREATING PARASITIC INFESTATIONS OF ORGANISMS” (priority 1999, dated 2001)

Key:
eggs of L.sericata = experiment: in vitro test on hatching of eggs of L.sericata (immersion); set-up: species or system Lucilia sericata; conditions: V/V in 2.0% W/V aqueous lecithin
Method: A series of in vitro tests were carried out to investigate the effects of the compound trans-cinnamic acid ethyl ester on the hatching of eggs of L.sericata.
A blowfly culture originating from the Central Veterinary Laboratory based in Weybridge, Surrey was used for the tests. None of the original adults had previously been exposed or resistant to insecticides. Eggs aged 10±2 hours of the blowfly were harvested on pig's liver in clusters using a prolene 4/0 paintbrush and examined under the binocular microscope for suitablility. Adult females used to produce these eggs were kept at 20°C, rh 70±5%, with a photoperiod of 8 hours. Groups of 30 eggs were then immediately transferred to a 9-cm Whatman filter paper in a 9-cm plastic petri dish. Two ml of cinnamic acid ethyl ester at concentrations in the range 1.0%; 2.5%; 5.0%; 7.5% and 10.0% V/V was poured gently into the petri dish immersing the eggs. Each concentration was previously prepared by dilution of active compound in a 2.0% W/V aqueous lecithin solution pre-warmed to 20°C. The mixture was sonicated for two minutes. After an exposure time of 1 minute, the test solution was carefully poured off and the eggs recovered individually to a 7ml polythene container in which a filter paper was saturated with pig's liver washings. […] Eggs following treatment were incubated at 25°C, rh 70±2% with a photoperiod of 8 hours duration. Hatching typically occurred within 12 hours of treatment.
Each concentration was replicated twice; controls were treated using only lecithin solution. The whole experiment was repeated using two further exposure times of 30 minutes and 90 minutes respectively.
The data were analysed using fitted curve graphical analysis. […] The data gathered from the experiment with an exposure time of 1 minute was also expressed using the probit transformation.
Fitted curves were used to calculate the concentration required to kill 50% of the eggs, (LC50) using the data obtained after immersing the eggs in solutions ranging from 1.0% to 10.0% V/V. The median lethal concentrations, (LC50) and LC95 concentrations are shown in Table 4 below:- Table 4

Aspergillus nidulans [1] = experiment: growth inhibition test on SAB agar, A. nidulans; type: cell-based
Method: (§1) The antifungal activity of ethyl trans-cinnamate against a number of different fungi was investigated by means of in a simple growth inhibition test.
(§2) The following quantities of Ethyl trans-Cinnamate were added to Sabourand Dextrose agar (SAB); 50 ml L^-1, 4ml L^-1, 2ml L^-1, 1ml L^-1, 400 µl L^-1, 200 µl L^-1 and 40 µl L^-1. […] These were then autoclaved and poured into standard Petri dishes. […] Duplicate plates of each concentration, plus control plates containing only SAB Agar, where then separately inoculated with, four different species of fungi, these were Aspergillus nidulans, Penicillium digitatum, Rhizopus arrhizus and Fusarium culmorum. Inoculation was carried out using a single stab at the centre of each Petri dish. The plates were then incubated at 30°C for 6 days and daily measurements of mycobial growth where taken every 24 hours.

Penicillium digitatum = experiment: growth inhibition test on SAB agar, P. digitatum; type: cell-based; set-up: key to Growth of P. digitatum: - = No Growth; + = Growth; ++ = Extensive Growth
Method: as §1, §2

Aspergillus nidulans [2] = experiment: growth inhibition test on SAB agar, A. nidulans; type: cell-based; conditions: 50ml L-^1 and higher doses; further experiments, data not shown
Rat = conditions: Oral, Russell 1973; cited from earlier work
Mouse = conditions: Oral, VPITAR 33(5)48,74; cited from earlier work
[3] = Lethal Concentrations at 1 minute
[4] = Lethal Concentrations at 30 minutes

CCOC(=O)/C=C/c1ccccc1 [trans-cinnamic acid ethyl ester]
LC50 (eggs of L.sericata; [3]): LC50 2.76% | LC95 (eggs of L.sericata; [3]): LC95>7.50% | LC50 (eggs of L.sericata; [4]): LC50 1.78% | LC95 (eggs of L.sericata; [4]): LC95>5.00% | LC50 (eggs of L.sericata; Lethal Concentrations at 90 minutes): LC50 0.36% | Level of Radial Growth (mm) of A. nidulans (Aspergillus nidulans [1]; 1ml L^-1, Day 1): 0 mm | Level of Radial Growth (mm) of A. nidulans (Aspergillus nidulans [1]; 1ml L^-1, Day 2): 0 mm | Level of Radial Growth (mm) of A. nidulans (Aspergillus nidulans [1]; 1ml L^-1, Day 3): 6.0 mm | Level of Radial Growth (mm) of A. nidulans (Aspergillus nidulans [1]; 1ml L^-1, Day 4): 11.5 mm | Level of Radial Growth (mm) of A. nidulans (Aspergillus nidulans [1]; 1ml L^-1, Day 5): 16.5 mm | Level of Radial Growth (mm) of A. nidulans (Aspergillus nidulans [1]; 1ml L^-1, Day 6): 22.0 mm | Level of Radial Growth (mm) of A. nidulans (Aspergillus nidulans [1]; 2ml L^-1, Day 1): 0 mm | Level of Radial Growth (mm) of A. nidulans (Aspergillus nidulans [1]; 2ml L^-1, Day 2): 0 mm | Level of Radial Growth (mm) of A. nidulans (Aspergillus nidulans [1]; 2ml L^-1, Day 3): 0 mm | Level of Radial Growth (mm) of A. nidulans (Aspergillus nidulans [1]; 2ml L^-1, Day 4): 0 mm | Level of Radial Growth (mm) of A. nidulans (Aspergillus nidulans [1]; 2ml L^-1, Day 5): 6.5 mm | Level of Radial Growth (mm) of A. nidulans (Aspergillus nidulans [1]; 2ml L^-1, Day 6): 12.5 mm | Level of Radial Growth (mm) of A. nidulans (Aspergillus nidulans [1]; 4ml L^-1, Day 1): 0 mm | Level of Radial Growth (mm) of A. nidulans (Aspergillus nidulans [1]; 4ml L^-1, Day 2): 0 mm | Level of Radial Growth (mm) of A. nidulans (Aspergillus nidulans [1]; 4ml L^-1, Day 3): 0 mm | Level of Radial Growth (mm) of A. nidulans (Aspergillus nidulans [1]; 4ml L^-1, Day 4): 0 mm | Level of Radial Growth (mm) of A. nidulans (Aspergillus nidulans [1]; 4ml L^-1, Day 5): 0 mm | Level of Radial Growth (mm) of A. nidulans (Aspergillus nidulans [1]; 4ml L^-1, Day 6): 4.5 mm | Level of Radial Growth (mm) of A. nidulans (Aspergillus nidulans [1]; 40µl L^-1, Day 1): 0 mm | Level of Radial Growth (mm) of A. nidulans (Aspergillus nidulans [1]; 40µl L^-1, Day 2): 12.0 mm | Level of Radial Growth (mm) of A. nidulans (Aspergillus nidulans [1]; 40µl L^-1, Day 3): 23.0 mm | Level of Radial Growth (mm) of A. nidulans (Aspergillus nidulans [1]; 40µl L^-1, Day 4): 27.0 mm | Level of Radial Growth (mm) of A. nidulans (Aspergillus nidulans [1]; 40µl L^-1, Day 5): 32.5 mm | Level of Radial Growth (mm) of A. nidulans (Aspergillus nidulans [1]; 40µl L^-1, Day 6): 38 mm | inhibition of growth (Aspergillus nidulans [1]; 50ml L-^1 level): complete inhibition of growth | Level of Radial Growth (mm) of A. nidulans (Aspergillus nidulans [1]; 50 ml L^-1, Day 1): 0 mm | Level of Radial Growth (mm) of A. nidulans (Aspergillus nidulans [1]; 50 ml L^-1, Day 2): 0 mm | Level of Radial Growth (mm) of A. nidulans (Aspergillus nidulans [1]; 50 ml L^-1, Day 3): 0 mm | Level of Radial Growth (mm) of A. nidulans (Aspergillus nidulans [1]; 50 ml L^-1, Day 4): 0 mm | Level of Radial Growth (mm) of A. nidulans (Aspergillus nidulans [1]; 50 ml L^-1, Day 5): 0 mm | Level of Radial Growth (mm) of A. nidulans (Aspergillus nidulans [1]; 50 ml L^-1, Day 6): 0 mm | Level of Radial Growth (mm) of A. nidulans (Aspergillus nidulans [1]; 200µl L^-1, Day 1): 0 mm | Level of Radial Growth (mm) of A. nidulans (Aspergillus nidulans [1]; 200µl L^-1, Day 2): 9.5 mm | Level of Radial Growth (mm) of A. nidulans (Aspergillus nidulans [1]; 200µl L^-1, Day 3): 16.5 mm | Level of Radial Growth (mm) of A. nidulans (Aspergillus nidulans [1]; 200µl L^-1, Day 4): 23.0 mm | Level of Radial Growth (mm) of A. nidulans (Aspergillus nidulans [1]; 200µl L^-1, Day 5): 28.0 mm | Level of Radial Growth (mm) of A. nidulans (Aspergillus nidulans [1]; 200µl L^-1, Day 6): 34.5 mm | Level of Radial Growth (mm) of A. nidulans (Aspergillus nidulans [1]; 400µl L^-1, Day 1): 0 mm | Level of Radial Growth (mm) of A. nidulans (Aspergillus nidulans [1]; 400µl L^-1, Day 2): 5.5 mm | Level of Radial Growth (mm) of A. nidulans (Aspergillus nidulans [1]; 400µl L^-1, Day 3): 11.5 mm | Level of Radial Growth (mm) of A. nidulans (Aspergillus nidulans [1]; 400µl L^-1, Day 4): 18.0 mm | Level of Radial Growth (mm) of A. nidulans (Aspergillus nidulans [1]; 400µl L^-1, Day 5): 24.5 mm | Level of Radial Growth (mm) of A. nidulans (Aspergillus nidulans [1]; 400µl L^-1, Day 6): 30.0 mm | Growth of P. digitatum (Penicillium digitatum; 1ml L^-1, Day 1): - | Growth of P. digitatum (Penicillium digitatum; 1ml L^-1, Day 2): - | Growth of P. digitatum (Penicillium digitatum; 1ml L^-1, Day 3): - | Growth of P. digitatum (Penicillium digitatum; 1ml L^-1, Day 4): + | Growth of P. digitatum (Penicillium digitatum; 1ml L^-1, Day 5): + | Growth of P. digitatum (Penicillium digitatum; 1ml L^-1, Day 6): + | Growth of P. digitatum (Penicillium digitatum; 2ml L^-1, Day 1): - | Growth of P. digitatum (Penicillium digitatum; 2ml L^-1, Day 2): - | Growth of P. digitatum (Penicillium digitatum; 2ml L^-1, Day 3): - | Growth of P. digitatum (Penicillium digitatum; 2ml L^-1, Day 4): - | Growth of P. digitatum (Penicillium digitatum; 2ml L^-1, Day 5): - | Growth of P. digitatum (Penicillium digitatum; 2ml L^-1, Day 6): - | Growth of P. digitatum (Penicillium digitatum; 4ml L^-1, Day 1): - | Growth of P. digitatum (Penicillium digitatum; 4ml L^-1, Day 2): - | Growth of P. digitatum (Penicillium digitatum; 4ml L^-1, Day 3): - | Growth of P. digitatum (Penicillium digitatum; 4ml L^-1, Day 4): - | Growth of P. digitatum (Penicillium digitatum; 4ml L^-1, Day 5): - | Growth of P. digitatum (Penicillium digitatum; 4ml L^-1, Day 6): - | Growth of P. digitatum (Penicillium digitatum; 40µl L^-1, Day 1): - | Growth of P. digitatum (Penicillium digitatum; 40µl L^-1, Day 2): ++ | Growth of P. digitatum (Penicillium digitatum; 40µl L^-1, Day 3): ++ | Growth of P. digitatum (Penicillium digitatum; 40µl L^-1, Day 4): ++ | Growth of P. digitatum (Penicillium digitatum; 40µl L^-1, Day 5): ++ | Growth of P. digitatum (Penicillium digitatum; 40µl L^-1, Day 6): ++ | duration of complete inhibition of growth (Penicillium digitatum; 50ml L-^1 and higher doses, further experiments, data not shown): at least 8 days | inhibition of growth (Penicillium digitatum; 50ml L-^1 level): complete inhibition of growth | Growth of P. digitatum (Penicillium digitatum; 50 ml L^-1, Day 1): - | Growth of P. digitatum (Penicillium digitatum; 50 ml L^-1, Day 2): - | Growth of P. digitatum (Penicillium digitatum; 50 ml L^-1, Day 3): - | Growth of P. digitatum (Penicillium digitatum; 50 ml L^-1, Day 4): - | Growth of P. digitatum (Penicillium digitatum; 50 ml L^-1, Day 5): - | Growth of P. digitatum (Penicillium digitatum; 50 ml L^-1, Day 6): - | Growth of P. digitatum (Penicillium digitatum; 200µl L^-1, Day 1): - | Growth of P. digitatum (Penicillium digitatum; 200µl L^-1, Day 2): ++ | Growth of P. digitatum (Penicillium digitatum; 200µl L^-1, Day 3): ++ | Growth of P. digitatum (Penicillium digitatum; 200µl L^-1, Day 4): ++ | Growth of P. digitatum (Penicillium digitatum; 200µl L^-1, Day 5): ++ | Growth of P. digitatum (Penicillium digitatum; 200µl L^-1, Day 6): ++ | Growth of P. digitatum (Penicillium digitatum; 400µl L^-1, Day 1): - | Growth of P. digitatum (Penicillium digitatum; 400µl L^-1, Day 2): + | Growth of P. digitatum (Penicillium digitatum; 400µl L^-1, Day 3): ++ | Growth of P. digitatum (Penicillium digitatum; 400µl L^-1, Day 4): ++ | Growth of P. digitatum (Penicillium digitatum; 400µl L^-1, Day 5): ++ | Growth of P. digitatum (Penicillium digitatum; 400µl L^-1, Day 6): ++ | duration of complete inhibition of growth (Aspergillus nidulans [2]): at least 8 days | LDSO (Rat): 7800 mg/kg | LDSO (Mouse): 4000 mg/kg
